Measurements reported in ChEMBL document CHEMBL5518230, “Identification of a Novel Selective CDK9 Inhibitor for the Treatment of CRC: Design, Synthesis, and Biological Activity Evaluation” (J Med Chem, 2024).

target: CDK9/cyclin T1 (Homo sapiens) (UniProt O60563+P50750); experiment: Inhibition of CDK9/Cyclin T1 (unknown origin) using PDKtide substrate at 500 nM incubated for 60 mins by ADP-Glo kinase assay relative to control; format: protein-complex assay

Row | Compound | inhibition
1 | CC(C)n1nnc2ccc(-c3ccnc(Nc4ccc(C(=O)N5CCOCC5)cc4C(F)(F)F)c3)cc21 | 11.4%
2 | COc1cc(C(=O)N2CCOCC2)ccc1Nc1cc(-c2ccc3nnn(C(C)C)c3c2)ccn1 | 41.7%
3 | COc1cc(C(=O)N2CCOCC2)ccc1Nc1cc(-c2ccc3nnn(C(C)(C)C)c3c2)ccn1 | 28.1%
4 | CC(C)n1nnc2ccc(-c3ccnc(Nc4ccc(C(=O)N5CCOCC5)cc4)c3)cc21 | 83%
5 | CC(C)n1nnc2ccc(-c3ccnc(Nc4ccc(C(=O)N5CCOCC5)cc4F)c3)cc21 | 65.3%
6 | CC(C)(C)n1nnc2ccc(-c3ccnc(Nc4ccc(C(=O)N5CCOCC5)cc4C(F)(F)F)c3)cc21 | 6.51%
7 | CC(C)(C)n1nnc2ccc(-c3ccnc(Nc4ccc(C(=O)N5CCOCC5)cc4)c3)cc21 | 73.5%
8 | CC(C)(C)n1nnc2ccc(-c3ccnc(Nc4ccc(C(=O)N5CCOCC5)cn4)c3)cc21 | 98.9%
9 | CC(C)(C)n1nnc2ccc(-c3ccnc(Nc4ccc(C(=O)N5CCOCC5)cc4F)c3)cc21 | 50.3%

Now from value to molecule:

Row | inhibition | Compound
10 | 81.2% | O=C(c1ccc(Nc2cc(-c3ccc4nnn(C5CCCC5)c4c3)ccn2)cc1)N1CCOCC1
11 | 0.49% | O=C(c1ccc(Nc2cc(-c3ccc4nnn(C5CCCCC5)c4c3)ccn2)c(C(F)(F)F)c1)N1CCOCC1
12 | 16.3% | COc1cc(C(=O)N2CCOCC2)ccc1Nc1cc(-c2ccc3nnn(C4CCCCC4)c3c2)ccn1
13 | 41.1% | O=C(c1ccc(Nc2cc(-c3ccc4nnn(C5CCCCC5)c4c3)ccn2)c(F)c1)N1CCOCC1
14 | 23.5% | COc1cc(C(=O)N2CCOCC2)ccc1Nc1cc(-c2ccc3nnn(C4CCCC4)c3c2)ccn1
15 | 99.7% | O=C(c1ccc(Nc2cc(-c3ccc4nnn(C5CCCC5)c4c3)ccn2)nc1)N1CCOCC1
16 | 76% | O=C(c1ccc(Nc2cc(-c3ccc4nnn(C5CCCCC5)c4c3)ccn2)cc1)N1CCOCC1
17 | 12.9% | O=C(c1ccc(Nc2cc(-c3ccc4nnn(C5CCCC5)c4c3)ccn2)c(F)c1)N1CCOCC1

target: CDK9/cyclin T1 (Homo sapiens, UniProt P50750); experiment: Inhibition of CDK9/Cyclin T1 (unknown origin) using PDKtide substrate incubated for 60 mins by ADP-Glo kinase assay; format: protein-complex assay
Sequence (O60563 whole entry): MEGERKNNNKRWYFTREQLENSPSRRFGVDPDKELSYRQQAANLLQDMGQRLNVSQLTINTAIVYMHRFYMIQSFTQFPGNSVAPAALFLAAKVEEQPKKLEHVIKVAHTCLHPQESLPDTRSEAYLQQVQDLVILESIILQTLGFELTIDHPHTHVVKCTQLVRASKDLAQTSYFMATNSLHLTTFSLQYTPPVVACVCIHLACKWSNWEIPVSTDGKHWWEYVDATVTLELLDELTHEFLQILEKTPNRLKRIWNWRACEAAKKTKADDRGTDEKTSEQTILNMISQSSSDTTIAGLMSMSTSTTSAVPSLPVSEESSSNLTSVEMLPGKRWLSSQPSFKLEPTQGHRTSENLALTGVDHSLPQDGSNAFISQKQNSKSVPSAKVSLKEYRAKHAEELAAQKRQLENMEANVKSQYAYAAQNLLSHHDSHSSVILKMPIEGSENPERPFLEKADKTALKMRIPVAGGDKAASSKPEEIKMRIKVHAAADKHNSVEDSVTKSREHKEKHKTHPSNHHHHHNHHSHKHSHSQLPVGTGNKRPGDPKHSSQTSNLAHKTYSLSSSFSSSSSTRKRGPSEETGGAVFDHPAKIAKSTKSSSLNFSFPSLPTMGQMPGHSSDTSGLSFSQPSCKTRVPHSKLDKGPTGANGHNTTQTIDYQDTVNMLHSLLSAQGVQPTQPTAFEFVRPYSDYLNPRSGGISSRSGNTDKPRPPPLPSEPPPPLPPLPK
Sequence (P50750 whole entry): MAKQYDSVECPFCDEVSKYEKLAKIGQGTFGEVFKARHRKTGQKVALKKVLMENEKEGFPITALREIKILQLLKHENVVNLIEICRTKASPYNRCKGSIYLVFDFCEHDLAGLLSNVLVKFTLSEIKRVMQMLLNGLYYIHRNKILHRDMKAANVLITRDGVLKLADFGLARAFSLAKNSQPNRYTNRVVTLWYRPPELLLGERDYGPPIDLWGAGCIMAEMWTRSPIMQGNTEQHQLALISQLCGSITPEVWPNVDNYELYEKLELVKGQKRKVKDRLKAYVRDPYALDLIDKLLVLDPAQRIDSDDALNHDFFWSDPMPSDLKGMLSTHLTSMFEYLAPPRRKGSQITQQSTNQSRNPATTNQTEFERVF

Row | Compound | IC50
18 | O=C(c1ccc(Nc2cc(-c3ccc4nnn(C5CCCC5)c4c3)ccn2)nc1)N1CCOCC1 | 9.92 nM
19 | CC(C)(C)n1nnc2ccc(-c3ccnc(Nc4ccc(C(=O)N5CCOCC5)cn4)c3)cc21 | 9.73 nM
